Experimental data reported in US20230416258A1, “BENZ[…], AND PREPARATION METHOD THEREFOR AND USE THEREOF” (CHINA PHARMACEUTICAL UNIVERSITY, priority 2020, published 2023).
Where two headings read alike, the source gives them in different places.

How the values were obtained:
hCMEC/D3 cells = assay: Rate of drug passing through in vitro blood-brain barrier (Transwell); assay type: in vitro ADME; details: hCMEC/D3 monolayer, compound 0.1 mg/mL
Protocol: A Transwell device (pore size: 5.0 μm) was placed in a 24-well cell culture well; then hCMEC/D3 cells at 1×10^5 cells/mL were transferred to the upper microwells of Transwell at 150 μL/well, and cell culture medium was added to the lower microwells. After the bottom was covered by a single layer of the cells, the medium in the wells was replaced with EBM-2 complete medium containing 1% FBS, and the cells were cultured in a CO2 incubator for 10 days until a fully dense single layer of the cells was formed. When a fully dense single layer of the cells was formed, the compound at 0.1 mg/mL was added to the lower medium, and after 5 min, the concentration of the compound in the upper medium was measured to calculate the permeability:
Pcompound%=Cupper compound/Clower compound×100%

[1] = system: GABA-activated Cl− current (GABAA receptor) in HEK 293T cells; assay: Effect of drugs on GABA-activated current in cells by cell patch clamp; assay type: cell-based; details: for Enhancement percentage Emax for 2 μM GABA current (within 3-30 μM): corresponding concentration 20 μM
Protocol: Test compounds were dissolved at various concentrations in an extracellular buffer (140 mM NaCl, 4.7 mM KCl, 10 mM HEPES, 2 mM CaCl2), 10 mM glucose, 1 mM MgCl2, pH 7.4). HEK 293T cells were seeded on glass coverslips and cultured in DMEM media at 37° C. with 5% CO2 for 24 h. GABA Cl^− current was subjected to whole cell recording using an HEKA EPC 10USB patch clamp amplifier. 2 μM GABA was used for exciting Cl^− current, with the membrane potential clamped at −60 mV. The cells were treated with the test compound and 2 μM GABA simultaneously, and the induction effect on and Emax of Cl^− current in the same cell were recorded.
Maximum enhancement percentage Emax for 2 μM GABA current and corresponding concentration (μM): 100% for normal humans. The greater the percentage, the lower the corresponding concentration, and the greater the depth of anesthesia.

SD rats [2] = assay: Test for drug-induced disappearance of righting reflex in rats; assay type: in vivo; details: single rapid bolus via tail vein
Source text: In anesthetic drug experiments, latency generally refers to the time from the start of administration to the loss of consciousness of the subject. The shorter latency is preferred, indicating a rapid onset of action after administration. The duration of anesthesia generally refers to the duration of time from the loss of consciousness to the restoration of consciousness of the subject. The duration of the drug will vary from animal model to animal species. Too long anesthesia may produce adverse cardiovascular and respiratory responses, such as adverse neurological effects to the subject, including sleepiness and dizziness; meanwhile, too short duration of anesthesia may affect the anesthesia effect, causing problems such as increase of anesthesia dosage during the operation.
SD rats (male, 200-280 g) were randomly grouped and subjected to a single administration by rapid bolus via the tail vein. The latency and duration of righting reflex in the rats were recorded.

SD rats [3] = assay: Induction of anesthesia in rats by continuous infusion of drug for 20 min; assay type: in vivo; details: initial dose 20 mg/kg bolus, maintenance dose 0.2 (mg/kg)/min for 20 min, after infusion completed
Protocol: SD rats (male, 200-280 g) were randomly grouped and subjected to administration of an initial dose by rapid bolus via the tail vein, followed by a continuous infusion with a maintenance dose for 20 min.
After the infusion was completed, the duration of the righting reflex and the time from wake-up to recovery in rats were recorded.

KM mice = assay: Test for drug-induced disappearance of righting reflex in mice; assay type: in vivo; details: single rapid bolus via tail vein
Summary of the method: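 Latency to, and duration of, righting reflex loss were recorded after one fast tail-vein bolus. Animals: randomized female KM mice weighing 18–25 g.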

[4] = read-out: Positive enhancement EC50 (μM) for 2 μM GABA-induced current, −60 mV

Compound | In vitro blood-brain barrier, compound permeability at 5 min (hCMEC/D3 cells) [%] | EC50 [1, 4] [µM] | Enhancement percentage Emax for 2 μM GABA current (within 3-30 μM) ([1]; −60 mV) | Latency (SD rats [2]) [min] | Duration of anesthesia (SD rats [3]) [min] | Time from wake-up to recovery (SD rats [3]) [min] | Duration (KM mice; 30 mg/kg) [min] | Latency (KM mice; 30 mg/kg) [min] | Duration (KM mice; 60 mg/kg) [min] | Latency (KM mice; 60 mg/kg) [min] | Duration (KM mice; 100 mg/kg) [min] | Latency (KM mice; 100 mg/kg) [min] | EC50 ([1]; 2 μM GABA, −60 mV, read-out: Positive enhancement EC50 (μM) for 2 μM GABA-induced current) [µM] | Duration (SD rats [2]) [min]
COC(=O)CC[C@@H]1N=C(c2ccccc2F)c2cc(Cl)ccc2-n2c(S)nnc21 [Compound 1, methyl (S)-3-(8-chloro-6-(2-fluorophenyl)-1-mercapto-4H-benzo[f][1,2,4]triazolo[4,3-a][1,4]diazepin-4-yl)propionate] | 72.2 | 0.85 | 216% (20 μM) | 0.25 | 2.82 | 11.2 | 3.51 | 0.26 | – | – | – | – | – | –
COC(=O)CC[C@@H]1N=C(c2ccccc2F)c2cc([N+](=O)[O-])ccc2-n2c(SC)nnc21 [Compound 10, methyl (S)-3-(8-nitro-6-(2-fluorophenyl)-1-(methylthio)-4H-benzo[f][1,2,4]triazolo[4,3-a][1,4]diazepin-4-yl)propionate] | 58.7 | 0.67 | 202% (20 μM) | 0.32 | 5.35 | 13.6 | 3.15 | 0.76 | – | – | – | – | – | –
CCSc1nnc2n1-c1ccc([N+](=O)[O-])cc1C(c1ccccc1F)=N[C@H]2CCC(=O)OC [Compound 13, methyl (S)-3-(8-nitro-6-(2-fluorophenyl)-1-(ethylthio)-4H-benzo[f][1,2,4]triazolo[4,3-a][1,4]diazepin-4-yl)propionate] | 81.6 | 0.58 | 246% (20 μM) | 0.58 | 5.22 | 11.4 | 2.87 | 0.23 | – | – | – | – | – | –
COC(=O)CC[C@@H]1N=C(c2ccccc2Cl)c2cc(Cl)ccc2-n2c(SC)nnc21 [Compound 23, methyl (S)-3-(8-chloro-6-(2-chlorophenyl)-1-(methylthio)-4H-benzo[f][1,2,4]triazolo[4,3-a][1,4]diazepin-4-yl)propionate] | 65.3 | 0.52 | 278% (20 μM) | 0.36 | 7.22 | 13.2 | – | – | 8.46 | 0.25 | 14.6 | 0.16 | – | –
COC(=O)CC[C@@H]1N=C(c2ccccc2Cl)c2cc(Br)ccc2-n2c(SC)nnc21 [Compound 24, methyl (S)-3-(8-bromo-6-(2-chlorophenyl)-1-(methylthio)-4H-benzo[f][1,2,4]triazolo[4,3-a][1,4]diazepin-4-yl)propionate] | 73.4 | 0.48 | 282% (20 μM) | 0.28 | 15.6 | 22.3 | – | – | 6.83 | 0.24 | – | – | – | –
COC(=O)CC[C@@H]1N=C(c2ccccc2Cl)c2cc([N+](=O)[O-])ccc2-n2c(SC)nnc21 [Compound 25, methyl (S)-3-(8-nitro-6-(2-chlorophenyl)-1-(methylthio)-4H-benzo[f][1,2,4]triazolo[4,3-a][1,4]diazepin-4-yl)propionate] | 81.5 | 0.64 | 242% (20 μM) | 0.45 | 7.35 | 10.2 | – | – | 5.89 | 0.31 | – | – | – | –
CCSc1nnc2n1-c1ccc(Cl)cc1C(c1ccccc1Cl)=N[C@H]2CCC(=O)OC [Compound 26, methyl (S)-3-(8-chloro-6-(2-chlorophenyl)-1-(ethylthio)-4H-benzo[f][1,2,4]triazolo[4,3-a][1,4]diazepin-4-yl)propionate] | 52.8 | 0.71 | 249% (20 μM) | 0.36 | 8.22 | 9.46 | 3.57 | 1.5 | 8.06 | 0.18 | – | – | – | –
CCCSc1nnc2n1-c1ccc(Cl)cc1C(c1ccccc1Cl)=N[C@H]2CCC(=O)OC [Compound 29, methyl (S)-3-(8-chloro-6-(2-chlorophenyl)-1-(propylthio)-4H-benzo[f][1,2,4]triazolo[4,3-a][1,4]diazepin-4-yl)propionate] | 77.6 | 0.74 | 251% (20 μM) | 0.86 | 9.18 | 13.6 | 9.25 | 0.57 | – | – | – | – | – | –
COC(=O)CC[C@@H]1N=C(c2ccccc2Cl)c2cc([N+](=O)[O-])ccc2-n2c(SCCO)nnc21 [Compound 34, methyl (S)-3-(8-nitro-6-(2-chlorophenyl)-1-((2-hydroxyethyl)thio)-4H-benzo[f][1,2,4]triazolo[4,3-a][1,4]diazepin-4-yl)propionate] | 85.6 | 0.38 | 302% (20 μM) | 0.22 | 48.2 | 35.6 | 21.9 | 0.3 | – | – | – | – | – | –
COC(=O)CC[C@@H]1N=C(c2ccccc2Cl)c2cc([N+](=O)[O-])ccc2-n2c(SCCN)nnc21 [Compound 37, methyl (S)-3-(8-nitro-6-(2-chlorophenyl)-1-((2-aminoethyl)thio)-4H-benzo[f][1,2,4]triazolo[4,3-a][1,4]diazepin-4-yl) propionate] | 84.6 | – | 267% (20 μM) | 0.22 | 6.68 | 10.5 | 7.63 | 0.49 | 7.68 | 0.21 | – | – | 0.53 | 25.1
COC(=O)CC[C@@H]1N=C(c2ccccc2F)c2cc(Cl)ccc2-n2c(SCCN3CCOCC3)nnc21 [Compound 51, methyl (S)-3-(8-chloro-6-(2-fluorophenyl)-1-((2-morpholinoethyl)thio)-4H-benzo[f][1,2,4]triazolo[4,3-a][1,4]diazepin-4-yl)propionate] | 78.6 | 0.41 | 304% (20 μM) | 0.27 | 8.36 | 22.6 | – | – | 8.46 | 0.25 | 14.6 | 0.16 | – | –
methyl (S)-3-(8-chloro-6-(2-chlorophenyl)-1-(2-((4-methylpiperidin-2-carbonyl)ethyl)thio)-4H-benzo[f][1,2,4]triazolo[4,3-a][1,4]diazepin-4-yl)propionate [Compound 136] | – | – | – | – | – | – | 17.5 | 0.36 | – | – | – | – | – | –
